Results taken from US20020058266A1, “EF-Tu protein encoded on the plastid DNA of the malaria parasite and protein synthesis inhibitors effective as anti-malarial compounds” (priority 1997, published 2002).

Legend:
[1] = tested on: GTPase domain of the 23S rRNApl of Toxoplasma gondii; test: Thiostrepton filter binding assay, T. gondii 23S rRNApl transcripts
Description: B) T. gondii wild type rRNApl transcript (filled triangle) and mutated transcript (open triangle) compared with control transcripts from P.falciparum rRNApl (open circle) and E.coli (filled circle).
(§1) Drug binding—Thiostrepton binding to short rRNA transcripts generated in vitro was assayed according to Ryan et al 1991, as modified by Clough et al 1997. […] Before […], samples were incubated on ice for 15 mins in 50 mM imidazole acetate (pH 7.6), 10 mM NH4Cl, 10 mM MgCl2, 1 mM […] and 100 μM GDP, in a final volume of 20 μl.
In the same way, we tested a transcript corresponding to the GTPase domain of the 23S rRNApl of Toxoplasma gondii (Tg), a related apicomplexan that is an important opportunistic pathogen in patients with AIDS. […] This was found also to be the case with a transcript derived from a PCR product covering the GTPase domain of Tgpl 23S rRNA (nt 926-1024) (FIG. 8B). Corrective mutation of the Tgpl transcript (E. coli number […]) conferred a significant increase (×5) in thiostrepton binding (FIG. 8B).

[2] = tested on: GTPase domain of Pf 23S rRNApl; test: Thiostrepton filter binding assay, transcripts of the GTPase domain of Pf 23S rRNApl (wild type and mutated); parameters: species or system Plasmodium falciparum
Description: (§2) A) Short 23S transcripts of P.falciparum (Pf) wild type rRNApl (open circle A1067) and mutated forms (open square A1067U and filled triangle A1067G), as well as Pf 28S rRNA transcripts (filled square), are compared with an optimized E.coli control transcript (filled circle). For convenience, nucleotide numbers correspond to E.coli.
as §1
Having established thiostrepton's activity, we asked “does the antibiotic bind preferentially to the nuclear, mitochondrial or plastid forms of Pf 28/23 S rRNA?”. Evidence that the highest affinity interaction of thiostrepton is with 23S rRNApl was obtained from an in vitro binding assay (Ryan et al 1991). Short transcripts of wild type (wt) RNA corresponding to the GTPase domain of Pf 23S rRNApl (nts 987-1078) were transcribed in vitro from a PCR product that included a T7 promoter sequence in one of the primers. Mutated malarial rRNA sequences (E.coli numbers A1067U and A1067G) were obtained by PCR methodology and transcribed in the same way. Both wild type and modified transcript sequences were verified prior to thiostrepton binding assays. A positive control transcript was used based on the 23S rRNA sequence of E.coli with a mutation (U1061A) that increases stability and binding. […] An intermediate level of binding (˜35% of wt) was obtained with the mutation Pfpl (E.coli number A1067G). Thiostrepton binding to a transcript corresponding to the GTPase domain (nt 1334-1427) of the cytosolic Pf 28S rRNA was ˜10% of that for Pf 23S rRNApl.

[3] = tested on: erythrocytic stages of P.falciparum; test: Incorporation of radiotracers (3H-hypoxanthine, 14C-isoleucine) by P.falciparum growing in blood cultures; type: cell-based, Plasmodium falciparum
Description: Antibiotics—Samples of Mocimycin (kirromycin), Aurodox (N-methylated kirromycin), and Efrotomycin (a glycoside of kirromycin) were used. Aurodox was dissolved in RPMI-Albumax medium (Grande et al 1977), kirromycin was dissolved in RPMI made alkaline by addition of 1M NaOH, and efrotomycin was dissolved in ethanol before dilution in culture medium. Enacyloxin IIA was dissolved in 1% NaHCO3 prior to dilution in RPMI-Albumax medium. The antibiotic GE2270A was dissolved in 100% DMSO before dilution in culture medium. Fusidic acid (Sigma) was dissolved directly in culture medium, and thiostrepton (Sigma) in 100% DMSO before dilution in culture medium. A hemisuccinate form of thiostrepton was prepared as a potassium salt, according to Bodanszky et al 1965. Incorporation of radiotracers by P.falciparum growing in blood cultures in the presence and absence of drugs was carried out as described (Strath et al 1993).
Kirromycin: Kirromycin-resistant forms of bacterial EF-Tu are modified at one of seven amino acids along the opposing interfaces of domains I and III (Mesters et al 1994 and Abdulkarim et al 1994) and Pf EF-Tupl has a substitution at one of these sites (A375S-E.coli numbers) that could potentially confer resistance to kirromycin. To test this possibility, kirromycin (Mocimycin), its methylated derivative Aurodox or its disaccharide derivative Efrotomycin were incubated with erythrocytic stages of P.falciparum grown in cultures over a 36 hr period. The incorporation of both ^3H-hypoxanthine and ^14C-isoleucine was inhibited in a dose-dependent fashion, maximum inhibition being achieved at 100 μM kirromycin (FIG. 5). […] Once maximal depression of incorporation had been reached at any particular dose of drug, residual incorporation continued at a uniform rate thereafter. Vital staining with rhodamine 123, a fluorescent dye that concentrates within the mitochondrion (Divo et al. 1985) confirmed the parasiticidal effect, loss of specific mt staining being evident within 2-3 hours (data not shown). […] Blood cultures of P.falciparum were about 10 times more sensitive to the antibiotic than a gram-positive bacterium (Corynebacterium spp) used in parallel bioassays.

[4] = tested on: GTPase domain of the E. coli 23S rRNA; test: Thiostrepton binding assay, E. coli 23S rRNA transcript; conditions: contains the A at position 1067
Description: The binding was specific. It depended to a large extent on the presence of an A residue at the position corresponding to E. coli position 1067. […] A transcript corresponding to the GTPase domain of the cytosolic malaria 28S rRNA also bound thiostrepton poorly.
as §1
Having established thiostrepton's activity, we asked “does the antibiotic bind preferentially to the nuclear, mitochondrial or plastid forms of Pf 28/23 S rRNA?”. Evidence that the highest affinity interaction of thiostrepton is with 23S rRNApl was obtained from an in vitro binding assay (Ryan et al 1991). Short transcripts of wild type (wt) RNA corresponding to the GTPase domain of Pf 23S rRNApl (nts 987-1078) were transcribed in vitro from a PCR product that included a T7 promoter sequence in one of the primers. Mutated malarial rRNA sequences (E.coli numbers A1067U and A1067G) were obtained by PCR methodology and transcribed in the same way. Both wild type and modified transcript sequences were verified prior to thiostrepton binding assays. […]

[5] = tested on: GTPase domain of the cytosolic Pf 28S rRNA; test: Thiostrepton filter binding assay, cytosolic Pf 28S rRNA transcript; parameters: species or system Plasmodium falciparum; conditions: GTPase domain nt 1334-1427
Description: as §2, §1
Having established thiostrepton's activity, we asked “does the antibiotic bind preferentially to the nuclear, mitochondrial or plastid forms of Pf 28/23 S rRNA?”. Evidence that the highest affinity interaction of thiostrepton is with 23S rRNApl was obtained from an in vitro binding assay (Ryan et al 1991). Short transcripts of wild type (wt) RNA corresponding to the GTPase domain of Pf 23S rRNApl (nts 987-1078) were transcribed in vitro from a PCR product that included a T7 promoter sequence in one of the primers. Mutated malarial rRNA sequences (E.coli numbers A1067U and A1067G) were obtained by PCR methodology and transcribed in the same way. […]

## C=C(NC(=O)C(=C)NC(=O)c1csc(C2=N[C@@H]3c4csc(n4)[C@H]4NC(=O)c5csc(n5)[C@H]([C@](C)(O)[C@@H](C)O)NC(=O)[C@H]5CSC(=N5)/C(=C/C)NC(=O)[C@H]([C@@H](C)O)NC(=O)c5csc(n5)[C@]3(CC2)NC(=O)[C@H](C)NC(=O)C(=C)NC(=O)[C@H](C)NC(=O)[C@H]([C@@H](C)CC)N[C@@H]2C=Cc3c([C@H](C)O)cc(nc3[C@H]2O)C(=O)O[C@@H]4C)n1)C(N)=O [thiostrepton]
[1]; Tgpl transcript, E. coli number U1077A versus wild type
  increase in thiostrepton binding by corrective mutation U1077A: 5 ×
[1]; wild type has substitution E.coli number A1077U, nt 926-1024
  thiostrepton binding to wild type Tgpl transcript: inhibits binding
[2]; Pfpl transcript, E.coli number A1067G
  thiostrepton binding, mutation A1067G: ~35 % of wt
[2]; Pfpl transcript, E.coli number A1067U
  thiostrepton binding, mutation A1067U: ~14 % of wt
[2]; short transcript of the GTPase domain, malaria plastid
  thiostrepton binding to wild type transcript: bound thiostrepton strongly
[3]
  onset of inhibition of protein synthesis: 5 h
[3]; Plasmodium falciparum, 3 h, read-out: 50% inhibition of uptake of 3H-hypoxanthine and 14C-isoleucine
  IC50: 3 to 5 µM
[4]
  thiostrepton binding to E. coli transcript: bind thiostrepton strongly
[5]
  thiostrepton binding to Pf 28S rRNA transcript relative to Pf 23S rRNApl: ~10%
